From PubChem BioAssay (NCI)
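Test compounds were applied to cells in 96-well plates for 48 hours at 5 doses. TGI marks complete inhibition of growth.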

Columns and labels:
Assay in all cases: inhibition of tumour cell growth, NCI panel, 48 h
[1] = system: SF-539 CNS
[2] = system: A549 NSCLC
[3] = system: COLO 205 colon
[4] = system: OVCAR-4 ovarian
[5] = system: DU-145 prostate
[6] = system: MDA-MB-435
[7] = system: MALME-3M melanoma
[8] = system: RPMI-8226 leukemia
[9] = system: SF-295 CNS
[10] = system: HCC-2998 colon
[11] = system: HCT-15 colon
[12] = system: CCRF-CEM leukemia
[13] = system: OVCAR-8 ovarian
[14] = system: MOLT-4 leukemia
[15] = system: EKVX NSCLC
[16] = system: SF-268 CNS
[17] = system: HCT-116 colon
[18] = system: KM12 colon
[19] = system: A498 renal
[20] = system: MDA-MB-231 breast
[21] = system: NCI/ADR-RES ovarian
[22] = system: PC-3 prostate
[23] = system: NCI-H522 lung
[24] = system: SK-MEL-2 melanoma
[25] = system: ACHN renal
[26] = system: UACC-257 melanoma
[27] = system: HS 578T breast
[28] = system: 786-0 renal
[29] = system: SNB-75 CNS
[30] = system: NCI-H226 lung
[31] = system: HOP-92 NSCLC
[32] = system: SK-MEL-5 melanoma
[33] = system: M14 melanoma
[34] = system: K-562 leukemia
[35] = system: SN12C renal
[36] = system: MCF7 breast
[37] = system: HL-60(TB) leukemia
[38] = system: HT29 colon
[39] = system: HOP-62 NSCLC
[40] = system: SNB-19 CNS
[41] = system: SK-OV-3 ovarian
[42] = system: SW-620 colon
[43] = system: CAKI-1 renal
[44] = system: LOX IMVI melanoma
[45] = system: IGROV1 ovarian
[46] = system: OVCAR-3 ovarian
[47] = system: SK-MEL-28 melanoma
[48] = system: OVCAR-5 ovarian
[49] = system: NCI-H460 lung
[50] = system: UO-31 renal
[51] = system: T-47D breast
[52] = system: SR leukemia
[53] = system: U251 CNS
[54] = system: UACC-62 melanoma
[55] = system: RXF 393 renal
[56] = system: BT-549 breast
[57] = system: NCI-H23 lung
[58] = system: MDA-N
[59] = system: TK-10 renal

Nc1ccc(-c2nc3ccccc3s2)cc1Cl
TGI [1]: > 100 µM
TGI [2]: > 100 µM
TGI [3]: > 100 µM
TGI [4]: > 100 µM
TGI [5]: > 100 µM
TGI [6]: > 100 µM
TGI [7]: > 100 µM
TGI [8]: > 100 µM
TGI [9]: > 100 µM
TGI [10]: > 100 µM
TGI [11]: > 100 µM
TGI [12]: 98.3 µM
TGI [13]: > 100 µM
TGI [14]: > 100 µM
TGI [15]: > 100 µM
TGI [16]: > 100 µM
TGI [17]: > 100 µM
TGI [18]: > 100 µM
TGI [19]: 4.17 µM
TGI [20]: > 100 µM
TGI [21]: > 100 µM
TGI [22]: > 100 µM
TGI [23]: > 100 µM
TGI [24]: > 100 µM
TGI [25]: > 100 µM
TGI [26]: > 100 µM
TGI [27]: > 100 µM
TGI [28]: > 100 µM
TGI [29]: > 93.5 µM
TGI [30]: > 100 µM
TGI [31]: > 100 µM
TGI [32]: > 100 µM
TGI [33]: > 100 µM
TGI [34]: > 100 µM
TGI [35]: > 100 µM
TGI [36]: > 100 µM
TGI [37]: > 100 µM
TGI [38]: > 100 µM
TGI [39]: 72.8 µM
TGI [40]: > 100 µM
TGI [41]: > 100 µM
TGI [42]: > 100 µM
TGI [43]: > 100 µM
TGI [44]: > 100 µM
TGI [45]: > 100 µM
TGI [46]: > 100 µM
TGI [47]: > 100 µM
TGI [48]: > 100 µM
TGI [49]: > 100 µM
TGI [50]: > 100 µM
TGI [51]: > 100 µM
TGI [52]: > 100 µM
TGI [53]: > 100 µM
TGI [54]: > 100 µM
TGI [55]: > 94.2 µM
TGI [56]: > 100 µM
TGI [57]: > 100 µM
TGI [58]: > 100 µM

COc1cc(/C=C2\CC/C(=C\c3cc(OC)c(O)c(OC)c3)C2=O)cc(OC)c1O
TGI [1]: > 100 µM
TGI [2]: > 62.1 µM
TGI [3]: 54.2 µM
TGI [4]: 6.05 µM
TGI [5]: 16.5 µM
TGI [6]: 4.19 µM
TGI [7]: 1.74 µM
TGI [8]: 4.01 µM
TGI [9]: > 100 µM
TGI [10]: 3.38 µM
TGI [11]: 18.7 µM
TGI [12]: 23.1 µM
TGI [13]: > 26.1 µM
TGI [14]: 8 µM
TGI [15]: 16.5 µM
TGI [16]: 36.5 µM
TGI [17]: > 23.2 µM
TGI [18]: 4.52 µM
TGI [19]: 2.86 µM
TGI [20]: 21.4 µM
TGI [21]: 13.9 µM
TGI [22]: 19.7 µM
TGI [23]: 2.75 µM
TGI [24]: 2.02 µM
TGI [25]: 6.58 µM
TGI [26]: > 100 µM
TGI [27]: 15.8 µM
TGI [28]: > 100 µM
TGI [29]: 8.06 µM
TGI [30]: > 33.3 µM
TGI [32]: 5.57 µM
TGI [33]: > 23.6 µM
TGI [34]: 14.2 µM
TGI [35]: > 29.3 µM
TGI [36]: > 26.7 µM
TGI [37]: 8.62 µM
TGI [38]: > 100 µM
TGI [39]: > 100 µM
TGI [40]: > 100 µM
TGI [41]: > 100 µM
TGI [42]: > 100 µM
TGI [43]: 7.32 µM
TGI [44]: 6.26 µM
TGI [45]: 3.19 µM
TGI [46]: > 21.8 µM
TGI [59]: > 100 µM
TGI [48]: > 100 µM
TGI [49]: > 100 µM
TGI [50]: > 26.7 µM
TGI [51]: 8.02 µM
TGI [52]: > 100 µM
TGI [53]: > 49.2 µM
TGI [54]: 3.8 µM
TGI [55]: 3.74 µM
TGI [56]: 7.44 µM
TGI [57]: 5.72 µM
TGI [58]: > 23.4 µM
